Measured values published in patent publication US20240368096A1 (Enanta Pharmaceuticals, Inc., priority 2022, published 2024).

Tested on: HBV
Test: HBV infection in HepG2-NTCP cells (HBeAg AlphaLISA in supernatants)
Type: cell-based
Details: Hepatitis B virus, 192 h; HBV infection of HepG2-NTCP cells; HBeAg in supernatants at day 8 post infection; read-out: Cellular EC50
Procedure: HepG2-NTCP A3 cells were maintained in DMEM media supplemented with GlutaMAX™ 10% fetal bovine serum, 1% penicillin/streptomycin, and 5 μg/mL puromycin at 37° C. in a humidified atmosphere with 5% CO2 in a collagen-coated tissue culture flask.
HepG2-NTCP cells were seeded in 384 well plate containing 16,000 cells/well two days prior to the infection. On the day of infection, compounds were 3-fold serially diluted in DMSO and pre-incubated with HepG2-NTCP cells for two hours before purified HBV addition. HBV infection was carried out at 2000 GE/cell with 4% PEG, and the final concentration of DMSO is 0.5%. On day one post infection, HBV-containing media was aspirated, cells were washed once with PBS and then maintained in 2.5% DMSO containing media for the remainder of the assay.
Supernatants from infected HepG2-NTCP cells were collected at day 8 post infection, and the amount of viral antigen HBeAg was measured by HBeAg AlphaLISA detection kit (PerkinElmer) following the manufacturer's recommended protocol. Irrespective of readout, compound concentrations that reduce viral product accumulation in supernatants by […] relative to DMSO controls (EC50) are reported. EC50 ranges are as follows: A<0.1 μM; B 0.1-1 μM; C>1 μM.

EC50	Compound
< 100 nM	O=C(O)c1cc(-c2cc3c(cc2Cl)N(c2ccccc2)CC(C2CCCCC2)CS3(=O)=O)cc(F)c1F (racemic) [Example 606, Rac-5-(7-chloro-3-cyclohexyl-1,1-dioxido-5-phenyl-2,3,4,5-tetrahydrobenzo[b][1,4]thiazepin-8-yl)-2,3-difluorobenzoic acid]
100 to 1000 nM	CN1[C@H](C2CC=CCO2)CN(c2ccccc2)c2cc(Cl)c(-c3ccc(F)c(C(=O)O)c3)cc2S1(=O)=O (single isomer, unassigned) [Example 103]
> 1000 nM	CC1CN(c2ccccc2)c2cc(F)c(-c3ccc(F)c(C(=O)O)c3)cc2S(=O)(=O)N1C (stereo not drawn) [Example 1, 2-fluoro-5-(7-fluoro-2,3-dimethyl-1,1-dioxido-5-phenyl-2,3,4,5-tetrahydrobenzo[f][1,2,5]thiadiazepin-8-yl)benzoic acid]
> 1000 nM	CN1[C@@H](Cc2ccc(Cl)cc2)CN(c2ccccc2)c2cc(F)c(-c3ccc(F)c(C(=O)O)c3)cc2S1(=O)=O [Example 2]
> 1000 nM	O=C(O)c1cccc(-c2cc3c(cc2F)N(c2ccccc2)CC2c4ccccc4CN2S3(=O)=O)c1 (stereo not drawn) [Example 3]
100 to 1000 nM	O=C(O)c1cc(-c2cc3c(cc2F)N(c2ccccc2)CC2c4ccccc4CN2S3(=O)=O)ccc1F (stereo not drawn) [Example 4]
> 1000 nM	O=C(O)c1cccc(-c2cc3c(cc2F)N(c2ccccc2)CC2CC4(CC4)CN2S3(=O)=O)c1 (stereo not drawn) [Example 5]
> 1000 nM	O=C(O)c1cncc(-c2cc3c(cc2F)N(c2ccccc2)CC2CC4(CC4)CN2S3(=O)=O)c1 (stereo not drawn) [Example 6]
100 to 1000 nM	O=C(O)c1cc(-c2cc3c(cc2F)N(c2ccccc2)CC2CC4(CC4)CN2S3(=O)=O)ccc1F (stereo not drawn) [Example 7]
> 1000 nM	Cn1nc(-c2cc3c(cc2F)N(c2ccccc2)CC2CC4(CC4)CN2S3(=O)=O)cc1C(=O)O (stereo not drawn) [Example 8]
100 to 1000 nM	O=C(O)c1cccc(-c2cc3c(cc2F)N(c2ccccc2)C[C@H]2C[C@@H](C(F)(F)F)CN2S3(=O)=O)c1 [Example 9]
> 1000 nM	O=C(O)c1cc(-c2cc3c(cc2F)N(c2ccccc2)C[C@H]2C[C@@H](C(F)(F)F)CN2S3(=O)=O)ccc1F [Example 10]
> 1000 nM	O=C(O)c1cccc(-c2cc3c(cc2F)N(c2ccccc2)C[C@@H]2C[C@H](C(F)(F)F)CN2S3(=O)=O)c1 [Example 11]
> 1000 nM	CC1CN(c2ccccc2)c2cc(C#N)c(-c3cccc(C(=O)O)c3)cc2S(=O)(=O)N1C (stereo not drawn) [Example 12, 3-(7-cyano-2,3-dimethyl-1,1-dioxido-5-phenyl-2,3,4,5-tetrahydrobenzo[f][1,2,5]thiadiazepin-8-yl)benzoic acid]
> 1000 nM	CN1[C@@H](Cc2ccc(Cl)cc2)CN(c2ccccc2)c2cc(C#N)c(-c3cccc(C(=O)O)c3)cc2S1(=O)=O [Example 13]
100 to 1000 nM	CC(C)CC1CN(c2ccccc2)c2cc(C#N)c(-c3cccc(C(=O)O)c3)cc2S(=O)(=O)N1C (stereo not drawn) [Example 14]
> 1000 nM	COc1cc2c(cc1-c1cccc(C(=O)O)c1)S(=O)(=O)N(C)C(C)CN2c1ccccc1 (stereo not drawn) [Example 15, 3-(7-methoxy-2,3-dimethyl-1,1-dioxido-5-phenyl-2,3,4,5-tetrahydrobenzo[f][1,2,5]thiadiazepin-8-yl)benzoic acid]
100 to 1000 nM	COc1cc2c(cc1-c1cccc(C(=O)O)c1)S(=O)(=O)N1Cc3ccccc3C1CN2c1ccccc1 (stereo not drawn) [Example 16]
> 1000 nM	COc1cc2c(cc1-c1cccc(C(=O)O)c1)S(=O)(=O)N(C)[C@@H](Cc1ccc(Cl)cc1)CN2c1ccccc1 [Example 17]

EC50	Compound
100 to 1000 nM	CSc1cc2c(cc1-c1cccc(C(=O)O)c1)S(=O)(=O)N1CC3(CC3)CC1CN2c1ccccc1 (stereo not drawn) [Example 18, 3-(8-(methylthio)-5,5-dioxido-10-phenyl-1,10,11,11a-tetrahydro-3H-spiro[benzo[f]pyrrolo[1,2-b][1,2,5]thiadiazepine-2,1′-cyclopropan]-7-yl)benzoic acid]
100 to 1000 nM	CSc1cc2c(cc1-c1cccc(C(=O)O)c1)S(=O)(=O)N1CC(C)(C)CC1CN2c1ccccc1 (stereo not drawn) [Example 19]
100 to 1000 nM	CSc1cc2c(cc1-c1ccc(F)c(C(=O)O)c1)S(=O)(=O)N1CC(C)(C)CC1CN2c1ccccc1 (stereo not drawn) [Example 20]
100 to 1000 nM	CSc1cc2c(cc1-c1cncc(C(=O)O)c1)S(=O)(=O)N1CC(C)(C)CC1CN2c1ccccc1 (stereo not drawn) [Example 21]
> 1000 nM	CSc1cc2c(cc1-c1cccc(C(=O)O)c1)S(=O)(=O)N1Cc3ccccc3C1CN2c1ccccc1 (stereo not drawn) [Example 22]
> 1000 nM	CSc1cc2c(cc1-c1cccc(C(=O)O)c1)S(=O)(=O)N1C[C@H](C(F)(F)F)C[C@@H]1CN2c1ccccc1 [Example 23]
> 1000 nM	CSc1cc2c(cc1-c1cccc(C(=O)O)c1)S(=O)(=O)N1C[C@@H](C(F)(F)F)C[C@H]1CN2c1ccccc1 [Example 24]
< 100 nM	CN1[C@H](C2CCCCC2)CN(c2ccccc2)c2cc(Cl)c(-c3ccc(Cl)c(C(=O)O)c3)cc2S1(=O)=O [Example 26]
100 to 1000 nM	CN1[C@H](C2CCC(F)(F)CC2)CN(c2ccccc2)c2cc(Cl)c(-c3ccc(F)c(C(=O)O)c3)cc2S1(=O)=O [Example 27]
100 to 1000 nM	CN1[C@H](C2CCC(F)(F)CC2)CN(c2ccccc2)c2cc(Cl)c(-c3ccc(Cl)c(C(=O)O)c3)cc2S1(=O)=O [Example 29]
100 to 1000 nM	CN1[C@H](C2CC(F)(F)C2)CN(c2ccccc2)c2cc(Cl)c(-c3ccc(F)c(C(=O)O)c3)cc2S1(=O)=O [Example 30]
100 to 1000 nM	CN1[C@H](C2CC(F)(F)C2)CN(c2ccccc2)c2cc(Cl)c(-c3cc(F)c(F)c(C(=O)O)c3)cc2S1(=O)=O [Example 31]
100 to 1000 nM	CN1[C@H](C2CC(F)(F)C2)CN(c2ccccc2)c2cc(Cl)c(-c3ccc(Cl)c(C(=O)O)c3)cc2S1(=O)=O [Example 32]
100 to 1000 nM	CC(C)CC1CN(c2ccccc2)c2cc(Cl)c(-c3cccc(C(=O)O)c3)cc2S(=O)(=O)N1C (stereo not drawn) [Example 33]
< 100 nM	CC(C)CC1CN(c2ccccc2)c2cc(Cl)c(-c3ccc(F)c(C(=O)O)c3)cc2S(=O)(=O)N1C (stereo not drawn) [Example 34]
100 to 1000 nM	CC(C)CC1CN(c2ccccc2)c2cc(Cl)c(-c3cncc(C(=O)O)c3)cc2S(=O)(=O)N1C (stereo not drawn) [Example 35]
100 to 1000 nM	CC(C)CC1CN(c2ccccc2)c2cc(Cl)c(-c3cc(F)cc(C(=O)O)c3)cc2S(=O)(=O)N1C (stereo not drawn) [Example 36]
100 to 1000 nM	CC(C)CC1CN(c2ccccc2)c2cc(Cl)c(-c3cc(Cl)cc(C(=O)O)c3)cc2S(=O)(=O)N1C (stereo not drawn) [Example 37]
< 100 nM	CC(C)CC1CN(c2ccccc2)c2cc(Cl)c(-c3ccc(Cl)c(C(=O)O)c3)cc2S(=O)(=O)N1C (stereo not drawn) [Example 38]

EC50	Compound
100 to 1000 nM	CC(C)CC1CN(c2ccccc2)c2cc(Cl)c(-c3cc(C(=O)O)n(C)n3)cc2S(=O)(=O)N1C (stereo not drawn) [Example 39]
> 1000 nM	C=CC[C@H]1CN(c2ccccc2)c2cc(Cl)c(-c3cccc(C(=O)O)c3)cc2S(=O)(=O)N1C [Example 40]
> 1000 nM	CN1[C@@H](CC2CC2)CN(c2ccccc2)c2cc(Cl)c(-c3cccc(C(=O)O)c3)cc2S1(=O)=O [Example 41]
> 1000 nM	CN1[C@@H](CC2CC2)CN(c2ccccc2)c2cc(Cl)c(-c3ccc(F)c(C(=O)O)c3)cc2S1(=O)=O [Example 42]
> 1000 nM	CN1[C@@H](CC2CCCCC2)CN(c2ccccc2)c2cc(Cl)c(-c3cccc(C(=O)O)c3)cc2S1(=O)=O [Example 43]
> 1000 nM	CCC1CN(c2ccccc2)c2cc(Cl)c(-c3ccc(F)c(C(=O)O)c3)cc2S(=O)(=O)N1C (stereo not drawn) [Example 45]
100 to 1000 nM	CCC1CN(c2ccccc2)c2cc(Cl)c(-c3ccc(Cl)c(C(=O)O)c3)cc2S(=O)(=O)N1C (stereo not drawn) [Example 46]
100 to 1000 nM	CCC[C@@H]1CN(c2ccccc2)c2cc(Cl)c(-c3ccc(F)c(C(=O)O)c3)cc2S(=O)(=O)N1C [Example 47]
< 100 nM	CCC[C@@H]1CN(c2ccccc2)c2cc(Cl)c(-c3ccc(Cl)c(C(=O)O)c3)cc2S(=O)(=O)N1C [Example 48]
> 1000 nM	CN1[C@H](Cc2ccc(Cl)cc2)CN(c2ccccc2)c2cc(Cl)c(-c3ccc(F)c(C(=O)O)c3)cc2S1(=O)=O [Example 49]
100 to 1000 nM	CN1[C@H](CC(C)(C)C)CN(c2ccccc2)c2cc(Cl)c(-c3ccc(F)c(C(=O)O)c3)cc2S1(=O)=O [Example 50]
< 100 nM	CN1[C@H](CC(C)(C)C)CN(c2ccccc2)c2cc(Cl)c(-c3ccc(Cl)c(C(=O)O)c3)cc2S1(=O)=O [Example 51]
100 to 1000 nM	CN1[C@H](CC2CCCCC2)CN(c2ccccc2)c2cc(Cl)c(-c3ccc(F)c(C(=O)O)c3)cc2S1(=O)=O [Example 52]
> 1000 nM	CN1[C@H](CCc2ccccc2)CN(c2ccccc2)c2cc(Cl)c(-c3ccc(F)c(C(=O)O)c3)cc2S1(=O)=O [Example 53]
100 to 1000 nM	CN1[C@H](c2ccccc2)CN(c2ccccc2)c2cc(Cl)c(-c3ccc(F)c(C(=O)O)c3)cc2S1(=O)=O [Example 54]
100 to 1000 nM	CN1[C@H](c2cccc(F)c2)CN(c2ccccc2)c2cc(Cl)c(-c3ccc(F)c(C(=O)O)c3)cc2S1(=O)=O [Example 55]
100 to 1000 nM	CN1[C@H](c2ccc(F)cc2)CN(c2ccccc2)c2cc(Cl)c(-c3ccc(F)c(C(=O)O)c3)cc2S1(=O)=O [Example 56]
100 to 1000 nM	O=C(O)c1cccc(-c2cc3c(cc2Cl)N(c2ccccc2)CC2CC4(CC4)CN2S3(=O)=O)c1 (stereo not drawn) [Example 57]
100 to 1000 nM	O=C(O)c1cc(-c2cc3c(cc2Cl)N(c2ccccc2)C[C@@H](C2CCCCC2)NS3(=O)=O)ccc1F [Example 58]
